From patent US12139520B2 (priority 2020, dated 2024) come the findings set out here.

SMILES strings stand for the structures. Bridge positions count the residues as written; N and C are the ends. Square brackets hold non-standard residues; d marks the D form. Peptide text beside a SMILES is read from it. Hyp = O=C(O)[C@@H]1C[C@@H](O)CN1; Cit = NC(=O)NCCC[C@H](N)C(=O)O

Data set [1] deals with hAM1 receptor (Homo sapiens, UniProt O60895+Q16602). The experiment in a line: cAMP assay for in vitro receptor activation, hAM1-R. The class given is cell-based. The conditions noted are these: cAMP assay, hAM1 receptor; read-out: hAM1R EC50. In outline: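 Monoclonal stable hAM1-overexpressing cells, thawed from frozen stock; 8000 cells/well in DPBS + 0.05% casein + 0.5 mM IBMX; read-out cAMP.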
Chain of hAM1 receptor (Q16602 23-461): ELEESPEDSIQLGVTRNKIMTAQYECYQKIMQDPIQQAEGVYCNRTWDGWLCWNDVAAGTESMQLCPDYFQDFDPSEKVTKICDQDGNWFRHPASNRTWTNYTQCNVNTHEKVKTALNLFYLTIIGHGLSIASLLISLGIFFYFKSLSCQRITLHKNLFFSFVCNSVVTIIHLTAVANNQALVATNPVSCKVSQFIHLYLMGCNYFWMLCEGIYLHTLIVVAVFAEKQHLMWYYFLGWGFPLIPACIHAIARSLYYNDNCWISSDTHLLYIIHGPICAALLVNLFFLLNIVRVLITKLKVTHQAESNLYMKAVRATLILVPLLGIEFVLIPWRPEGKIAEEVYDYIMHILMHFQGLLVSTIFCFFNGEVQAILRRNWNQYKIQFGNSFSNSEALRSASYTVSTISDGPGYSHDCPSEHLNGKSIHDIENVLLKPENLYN
Chain of hAM1 receptor (O60895 43-175 partner): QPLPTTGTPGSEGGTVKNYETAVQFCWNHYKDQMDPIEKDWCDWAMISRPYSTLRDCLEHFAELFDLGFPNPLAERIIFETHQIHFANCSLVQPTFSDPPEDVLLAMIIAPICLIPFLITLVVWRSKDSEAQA

Data set [2] has as its target T1, hAMY3 receptor (Homo sapiens, UniProt O60896+P30988).
T1 sequence (P30988 25-474): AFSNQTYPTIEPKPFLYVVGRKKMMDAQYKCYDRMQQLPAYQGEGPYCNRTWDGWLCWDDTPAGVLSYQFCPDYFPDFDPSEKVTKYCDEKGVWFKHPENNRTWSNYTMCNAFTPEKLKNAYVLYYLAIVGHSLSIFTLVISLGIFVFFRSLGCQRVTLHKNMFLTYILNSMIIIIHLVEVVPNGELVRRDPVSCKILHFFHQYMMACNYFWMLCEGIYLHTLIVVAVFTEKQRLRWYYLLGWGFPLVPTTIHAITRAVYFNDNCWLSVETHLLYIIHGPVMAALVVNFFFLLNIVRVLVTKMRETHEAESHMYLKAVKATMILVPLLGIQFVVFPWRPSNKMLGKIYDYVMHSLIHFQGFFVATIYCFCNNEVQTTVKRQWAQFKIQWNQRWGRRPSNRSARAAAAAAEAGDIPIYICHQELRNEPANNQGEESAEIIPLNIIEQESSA
T1 sequence (O60896 24-148 partner): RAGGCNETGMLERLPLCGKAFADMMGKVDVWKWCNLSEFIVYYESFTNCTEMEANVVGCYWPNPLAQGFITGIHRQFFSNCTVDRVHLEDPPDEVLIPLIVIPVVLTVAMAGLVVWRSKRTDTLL
The experiment in a line: cAMP assay for in vitro receptor activation, hAMY3-R. The note with it: cAMP assay, hAMY3 receptor; read-out: hAMY3R EC50. The class given is cell-based. In short, it runs like this: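 Read-out is TR-FRET cAMP signal, recorded one hour after reagent addition, following 30 min room-temperature stimulation of stable hAMY3 cells with graded compound doses in casein/IBMX (0.5 mM) buffer.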
A general note: Cyclic AMP is a second messenger, typically raised through Gs and lowered through Gi signalling.

A short description of data set [3]: Physical stability of peptide analogues (Thioflavin T fibrillation). The class given is physicochemical. The conditions noted are these: maximum ThT signal normalized between hAMY maximum and buffer background; 40° C., shaking, four days; pH 7 per table title. In short, it runs like this:
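Peptides in 50 mM sodium acetate pH 4 or 50 mM sodium phosphate pH 7 were preincubated 1 h, mixed with 4 μM ThT, held at 40° C with 700 rpm shaking before each read. Fluorescence (ex 450/em 480 nm) every 10 min for four days; LOESS-smoothed maximum signal normalized in percent between hAMY and buffer.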

For orientation: EC50 means the concentration needed to bring the measured effect to its halfway point.

As for `CC[C@H](C)[C@H](NC(=O)[C@H](CCC(N)=O)NC(=O)[C@H](Cc1c[nH]cn1)NC(=O)[C@H](C)NC(=O)[C@H](CC(C)C)NC(=O)[C@H](Cc1c[nH]c2ccccc12)NC(=O)[C@H](CCC(N)=O)NC(=O)[C@@H](NC(=O)[C@@H](NC(=O)[C@@H]1CSSC[C@H](NC(=O)[C@@H](N)CCCCN)C(=O)N[C@@H](CC(N)=O)C(=O)N[C@@H]([C@@H](C)O)C(=O)N[C@@H](C)C(=O)N[C@@H]([C@@H](C)O)C(=O)N1)[C@@H](C)O)C(C)C)C(=O)N[C@@H](Cc1ccc(O)cc1)C(=O)N[C@@H](CCC(N)=O)C(=O)N[C@@H](Cc1ccccc1)C(=O)N[C@H](C(=O)N[C@@H](CC(=O)O)C(=O)N[C@@H](CCCCN)C(=O)N[C@@H](CC(=O)O)C(=O)N[C@@H](CCCCN)C(=O)N[C@@H](CC(=O)O)C(=O)N[C@@H](C)C(=O)N[C@H](C(=O)N[C@@H](C)C(=O)N1CCC[C@H]1C(=O)N1CCC[C@H]1C(=O)N[C@H](C(=O)N[C@@H](CC(N)=O)C(=O)N[C@H](C(=O)NCC(=O)N[C@@H](CO)C(=O)N[C@@H](CC(N)=O)C(=O)NCC(=O)N1C[C@H](O)C[C@H]1C(N)=O)C(C)C)[C@@H](C)O)C(C)C)[C@@H](C)O` [compound 324] (H-KCNTATCTVQWLAHQIYQFTDKDKDAVAPPTNVGSNG[Hyp]-NH2; disulfide 2-7; N-terminus assumed), the EC50 in data set [1] was more than 5000 nM; in data set [2], 0.028 nM. Further, the “Max ThT signal (%)” value in data set [3] was found to be 11.850%.

Take `CC[C@H](C)[C@H](NC(=O)[C@H](CCC(N)=O)NC(=O)[C@H](Cc1c[nH]cn1)NC(=O)[C@H](C)NC(=O)[C@H](CC(C)C)NC(=O)[C@H](CCCNC(N)=O)NC(=O)[C@H](CCC(N)=O)NC(=O)[C@@H](NC(=O)[C@@H](NC(=O)[C@@H]1CSSC[C@H](NC(=O)CN)C(=O)N[C@@H](CCCNC(=N)N)C(=O)N[C@@H]([C@@H](C)O)C(=O)NCC(=O)N[C@@H]([C@@H](C)O)C(=O)N1)[C@@H](C)O)C(C)C)C(=O)N[C@@H](Cc1ccc(O)cc1)C(=O)N[C@@H](CCC(N)=O)C(=O)N[C@@H](Cc1ccccc1)C(=O)N[C@H](C(=O)N[C@@H](CC(=O)O)C(=O)N[C@@H](CCCCN)C(=O)N[C@@H](CC(=O)O)C(=O)N[C@@H](CCCCN)C(=O)N[C@@H](CC(=O)O)C(=O)N[C@@H](CC(N)=O)C(=O)N[C@H](C(=O)N[C@@H](C)C(=O)N1CCC[C@H]1C(=O)N[C@@H](CCCNC(=N)N)C(=O)N[C@H](C(=O)N[C@@H](CC(N)=O)C(=O)N[C@H](C(=O)NCC(=O)N1CCC[C@H]1C(=O)N[C@@H](CCC(N)=O)C(=O)NCC(=O)N[C@@H](Cc1ccc(O)cc1)C(N)=O)C(C)C)[C@@H](C)O)C(C)C)[C@@H](C)O` [compound 273] (H-GCRTGTCTVQ[Cit]LAHQIYQFTDKDKDNVAPRTNVGPQGY-NH2; disulfide 2-7; N-terminus assumed): the EC50 in data set [1] was more than 5000 nM; in data set [2], 0.021 nM. In data set [3], the “Max ThT signal (%)” value is listed as 29.000%.

With `CC[C@H](C)[C@H](NC(=O)[C@H](CCC(N)=O)NC(=O)[C@H](Cc1c[nH]cn1)NC(=O)[C@H](C)NC(=O)[C@H](CC(C)C)NC(=O)[C@H](CCCNC(=N)N)NC(=O)[C@H](CCC(N)=O)NC(=O)[C@@H](NC(=O)[C@@H](NC(=O)[C@@H]1CSSC[C@H](NC(=O)CN)C(=O)N[C@@H](CCCNC(=N)N)C(=O)N[C@@H]([C@@H](C)O)C(=O)NCC(=O)N[C@@H]([C@@H](C)O)C(=O)N1)[C@@H](C)O)C(C)C)C(=O)N[C@@H](Cc1ccc(O)cc1)C(=O)N[C@@H](CCC(N)=O)C(=O)N[C@@H](Cc1ccccc1)C(=O)N[C@H](C(=O)N[C@@H](CC(=O)O)C(=O)N[C@@H](CCCCN)C(=O)N[C@@H](Cc1ccccc1)C(=O)N[C@@H](CCCCN)C(=O)N[C@@H](CC(=O)O)C(=O)N[C@@H](CC(N)=O)C(=O)N[C@H](C(=O)N[C@@H](C)C(=O)N1CCC[C@H]1C(=O)N[C@@H](CCCNC(=N)N)C(=O)N[C@@H](CO)C(=O)N[C@@H](CCCCN)C(=O)N[C@H](C(=O)N[C@@H](CO)C(=O)N1CCC[C@H]1C(=O)N[C@@H](CCC(N)=O)C(=O)N[C@@H](Cc1c[nH]c2ccccc12)C(=O)N1C[C@H](O)C[C@H]1C(N)=O)[C@@H](C)CC)C(C)C)[C@@H](C)O` [compound 185] (H-GCRTGTCTVQRLAHQIYQFTDKFKDNVAPRSKISPQW[Hyp]-NH2; disulfide 2-7; N-terminus assumed), the EC50 in data set [1] is more than 5000 nM; in data set [2] it was 0.09 nM. In addition, in data set [3], the “Max ThT signal (%)” value turned out to be 2.800%.

As to `CC[C@H](C)[C@H](NC(=O)[C@H](CCC(N)=O)NC(=O)[C@H](Cc1c[nH]cn1)NC(=O)[C@H](C)NC(=O)[C@H](CC(C)C)NC(=O)[C@H](Cc1c[nH]c2ccccc12)NC(=O)[C@H](CCC(N)=O)NC(=O)[C@@H](NC(=O)[C@@H](NC(=O)[C@@H]1CSSC[C@H](NC(=O)[C@@H](N)CCCCN)C(=O)N[C@@H](CC(N)=O)C(=O)N[C@@H]([C@@H](C)O)C(=O)N[C@@H](C)C(=O)N[C@@H]([C@@H](C)O)C(=O)N1)[C@@H](C)O)C(C)C)C(=O)N[C@@H](Cc1ccc(O)cc1)C(=O)N[C@@H](CCC(N)=O)C(=O)N[C@@H](Cc1ccccc1)C(=O)N[C@H](C(=O)N[C@@H](CC(=O)O)C(=O)N[C@@H](CCCCN)C(=O)N[C@@H](CC(=O)O)C(=O)N[C@@H](CCCCN)C(=O)N[C@@H](CC(=O)O)C(=O)N[C@@H](CC(N)=O)C(=O)N[C@H](C(=O)N[C@@H](C)C(=O)N[C@@H](C)C(=O)N1CCC[C@H]1C(=O)N[C@H](C(=O)N[C@@H](CC(N)=O)C(=O)N[C@H](C(=O)NCC(=O)N[C@@H](CO)C(=O)N[C@@H](CC(N)=O)C(=O)NCC(=O)N1C[C@H](O)C[C@H]1C(N)=O)C(C)C)[C@@H](C)O)C(C)C)[C@@H](C)O` [compound 325] (H-KCNTATCTVQWLAHQIYQFTDKDKDNVAAPTNVGSNG[Hyp]-NH2; disulfide 2-7; N-terminus assumed), the results for the EC50 in data set [1] and in data set [2] were more than 5000 nM and 0.025 nM, respectively. Further, the “Max ThT signal (%)” value in data set [3] is on record as 10.100%.

As to `CC[C@H](C)[C@H](NC(=O)[C@H](CCC(N)=O)NC(=O)[C@H](Cc1c[nH]cn1)NC(=O)[C@H](C)NC(=O)[C@H](CC(C)C)NC(=O)[C@H](CCCNC(N)=O)NC(=O)[C@H](CCC(N)=O)NC(=O)[C@@H](NC(=O)[C@@H](NC(=O)[C@@H]1CSSC[C@H](NC(=O)[C@@H](N)CCCCN)C(=O)N[C@@H](CC(N)=O)C(=O)N[C@@H]([C@@H](C)O)C(=O)N[C@@H](C)C(=O)N[C@@H]([C@@H](C)O)C(=O)N1)[C@@H](C)O)C(C)C)C(=O)N[C@@H](Cc1ccc(O)cc1)C(=O)N[C@@H](CCC(N)=O)C(=O)N[C@@H](Cc1ccccc1)C(=O)N[C@H](C(=O)N[C@@H](CC(=O)O)C(=O)N[C@@H](CCCCN)C(=O)N[C@@H](CC(=O)O)C(=O)N[C@@H](CCCCN)C(=O)N[C@@H](CC(=O)O)C(=O)N[C@@H](CC(N)=O)C(=O)N[C@@H](C)C(=O)N[C@@H](C)C(=O)N1CCC[C@H]1C(=O)N1CCC[C@H]1C(=O)N[C@H](C(=O)N[C@@H](CC(N)=O)C(=O)N[C@H](C(=O)NCC(=O)N[C@@H](CO)C(=O)N[C@@H](CC(N)=O)C(=O)NCC(=O)N1C[C@H](O)C[C@H]1C(N)=O)C(C)C)[C@@H](C)O)[C@@H](C)O` [compound 251] (H-KCNTATCTVQ[Cit]LAHQIYQFTDKDKDNAAPPTNVGSNG[Hyp]-NH2; disulfide 2-7; N-terminus assumed), the EC50 was more than 5000 nM in data set [1] and 0.006 nM in data set [2]. In addition, in data set [3], the “Max ThT signal (%)” value is on record as 10.600%.

Turning to `CC[C@H](C)[C@H](NC(=O)[C@H](CCC(N)=O)NC(=O)[C@H](Cc1c[nH]cn1)NC(=O)[C@H](C)NC(=O)[C@H](CC(C)C)NC(=O)[C@H](CCCNC(=N)N)NC(=O)[C@H](CCC(N)=O)NC(=O)[C@@H](NC(=O)[C@@H](NC(=O)[C@@H]1CSSC[C@H](NC(=O)[C@@H](N)CCCCN)C(=O)N[C@@H](CC(N)=O)C(=O)N[C@@H]([C@@H](C)O)C(=O)N[C@@H](C)C(=O)N[C@@H]([C@@H](C)O)C(=O)N1)[C@@H](C)O)C(C)C)C(=O)N[C@@H](Cc1ccc(O)cc1)C(=O)N[C@@H](CCC(N)=O)C(=O)N[C@@H](Cc1ccccc1)C(=O)N[C@@H](C)C(=O)N[C@@H](CC(=O)O)C(=O)N[C@@H](CCCCN)C(=O)N[C@@H](CC(=O)O)C(=O)N[C@@H](CCCCN)C(=O)N[C@@H](CC(=O)O)C(=O)N[C@@H](CC(N)=O)C(=O)N[C@H](C(=O)N[C@@H](C)C(=O)N1CCC[C@H]1C(=O)N1CCC[C@H]1C(=O)N[C@H](C(=O)N[C@@H](CC(N)=O)C(=O)N[C@H](C(=O)NCC(=O)N[C@@H](CO)C(=O)N[C@@H](CC(N)=O)C(=O)NCC(=O)N1C[C@H](O)C[C@H]1C(N)=O)C(C)C)[C@@H](C)O)C(C)C` [compound 23] (H-KCNTATCTVQRLAHQIYQFADKDKDNVAPPTNVGSNG[Hyp]-NH2; disulfide 2-7), the EC50 is more than 5000 nM in data set [1] and 0.008 nM in data set [2]. In addition, the “Max ThT signal (%)” value in data set [3] stood at 4.200%.
